# Numbered stars: 1 amine (or outer) side, 2 acyl side, 3 side chain; on linkers, the order of the positions; unused ones are H or OH. Square brackets hold non-standard residues; d marks the D form. Peptide text beside a SMILES is read from it. * marks the point of attachment. 2Nal = N[C@@H](Cc1ccc2ccccc2c1)C(=O)O; dLac = C[C@@H](O)C(=O)O; Lac = C[C@H](O)C(=O)O; CO = O=C([*:1])[*:2]; Moc = COC(=O)*
# Target: DCN1 (Homo sapiens (Human), UniProt Q96GG9)
# Test: Competitive FP binding assay
# Conditions: bounds given in μM; read-out: Binding affinity to DCN1 (IC50)
# Procedure, shortened: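 FP competition with DCN1 in 100 mM phosphate pH 6.5, 0.02% Tween-20, 2% DMSO, probe 5 nM final. Equilibrated 30 min at room temperature with shaking. DCN1 was His6-tagged (uncleaved), expressed in E. coli Rosetta2 and purified by Ni-NTA and gel filtration.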
# Sequence of DCN1 (Q96GG9 58-259): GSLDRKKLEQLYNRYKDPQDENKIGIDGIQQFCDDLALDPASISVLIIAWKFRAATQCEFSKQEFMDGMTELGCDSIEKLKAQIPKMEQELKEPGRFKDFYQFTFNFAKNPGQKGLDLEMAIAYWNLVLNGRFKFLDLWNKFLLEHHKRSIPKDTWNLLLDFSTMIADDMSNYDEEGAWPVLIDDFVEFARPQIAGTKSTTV
row,SMILES,IC50 [µM]
1,CC[C@H](C)[C@H](NC(=O)[C@H](Cc1ccc2ccccc2c1)NC(=O)[C@@H](C)O)C(=O)N[C@@H](CCCCN)C(=O)N[C@@H](CC(C)C)C(N)=O [Example 167] (H-[dLac][2Nal]IKL-NH2),> 10
2,CC[C@H](C)[C@H](NC(=O)[C@H](Cc1ccc2ccccc2c1)NC(=O)[C@H](C)O)C(=O)N[C@@H](CCCCN)C(=O)N[C@@H](CC(C)C)C(N)=O [Example 168] (H-[Lac][2Nal]IKL-NH2),> 10
3,CC[C@H](C)[C@H](NC(=O)[C@H](Cc1ccc2ccccc2c1)NC(=O)NC)C(=O)N[C@@H](CCCCN)C(=O)N[C@@H](CC(C)C)C(N)=O [Example 169] ({NHMe-CO}-[2Nal]IKL-NH2),> 10
4,CC[C@H](C)[C@H](NC(=O)[C@H](Cc1ccc2ccccc2c1)NC(=O)OC)C(=O)N[C@@H](CCCCN)C(=O)N[C@@H](CC(C)C)C(N)=O [Example 170] (Moc-[2Nal]IKL-NH2),> 10
5,CCC(=O)N[C@@H](Cc1nc2ccc(C)cc2s1)C(=O)N[C@H](C(=O)N[C@@H](CCCCN)C(=O)N[C@@H]1CCOc2ccccc21)C1CCNCC1 [Example 180],> 1

# Same assay, conditions: read-out: Binding affinity to DCN1 (IC50 (nM))
row,IC50 [µM],SMILES
1,0.0906,CCC(=O)N[C@@H](Cc1nc2ccc(C)cc2s1)C(=O)N[C@H](C(=O)N[C@@H](CCCCN)C(=O)N[C@@H]1CCOc2ccccc21)C1CCCC1 [Example 175]
2,0.079,CCC(=O)N[C@@H](Cc1nc2ccc(CC)cc2s1)C(=O)N[C@H](C(=O)N[C@@H](CCCCN)C(=O)N[C@@H]1CCOc2ccccc21)C1CCCC1 [Example 176]
3,0.079,CCC(=O)N[C@@H](Cc1nc2ccc(CC)cc2s1)C(=O)N[C@H](C(=O)N[C@@H](CCCCN)C(=O)N[C@@H]1CNCc2ccccc21)C1CCCC1 [Example 177]
4,0.596,CCC(=O)N[C@@H](Cc1nc2ccc(C)cc2s1)C(=O)N[C@@H](CC1CCNCC1)C(=O)N[C@@H](CCCCN)C(=O)N[C@@H]1CCOc2ccccc21 [Example 178]
5,0.176,CCC(=O)N[C@@H](Cc1nc2ccc(C)cc2s1)C(=O)N[C@H](C(=O)N[C@@H](CCCCN)C(=O)N[C@@H]1CCOc2ccccc21)C1CCOCC1 [Example 181]
6,0.169,CCC(=O)N[C@@H](Cc1nc2ccc(CC)cc2s1)C(=O)N[C@H](C(=O)N[C@@H](CCCCN)C(=O)N[C@@H]1CCOc2ccccc21)C1CCOCC1 [Example 186]
7,0.886,CCC(=O)N[C@@H](Cc1nc(C)c(C(C)C)s1)C(=O)N[C@H](C(=O)N[C@@H](CCCCN)C(=O)N[C@@H]1CCOc2ccccc21)C1CCOCC1 [Example 187]
8,0.156,CCC(=O)N[C@@H](Cc1nc2ccc(C)cc2s1)C(=O)N[C@H](C(=O)N[C@@H](CCCCN(C)C)C(=O)N[C@@H]1CCOc2ccccc21)C1CCOCC1 [Example 188]
9,0.171,CCC(=O)N[C@@H](Cc1nc2ccc(CC)cc2s1)C(=O)N[C@H](C(=O)N[C@@H](CC1CCNCC1)C(=O)N[C@@H]1CCOc2ccccc21)C1CCOCC1 [Example 192]
10,0.171,CCC(=O)N[C@@H](Cc1nc2ccc(CC)cc2s1)C(=O)N[C@H](C(=O)N[C@@H](CC1CCN(C)CC1)C(=O)N[C@@H]1CCOc2ccccc21)C1CCOCC1 [Example 193]
11,0.0938,CCC(=O)N[C@@H](Cc1nc2ccc(C)cc2o1)C(=O)N[C@H](C(=O)N[C@@H](CCCCN)C(=O)N[C@@H]1CCOc2ccccc21)C1CCOCC1 [Example 194]
12,0.12,CCC(=O)N[C@@H](Cc1nc2ccc(CC)cc2o1)C(=O)N[C@H](C(=O)N[C@@H](CCCCN)C(=O)N[C@@H]1CCOc2ccccc21)C1CCCC1 [Example 195]
13,0.0711,CCC(=O)N[C@@H](Cc1nc2ccc(CC)cc2o1)C(=O)N[C@H](C(=O)N[C@@H](CCCCN)C(=O)N[C@@H]1CCOc2ccccc21)C1CCOCC1 [Example 196]
14,0.12,CCC(=O)N[C@@H](Cc1nc2ccc(Cl)cc2o1)C(=O)N[C@H](C(=O)N[C@@H](CCCCN)C(=O)N[C@@H]1CCOc2ccccc21)C1CCOCC1 [Example 198]

# Further lines, the compound ahead of its results:
row,SMILES,IC50 [µM]
1,CCC(=O)N[C@@H](Cc1nc2ccc(Cl)cc2s1)C(=O)N[C@H](C(=O)N[C@@H](CCCCN)C(=O)N[C@H]1CNCc2ccccc21)C1CCCC1 [Example 162],0.797
2,CCC(=O)N[C@@H](Cc1ccc2ccccc2c1)C(=O)N[C@H](C(=O)N[C@@H](CCCCN)C(=O)N[C@@H]1CCOc2cccc(Cl)c21)C1CCCC1 [Example 163],0.103
3,CCC(=O)N[C@@H](Cc1ccc2ccccc2c1)C(=O)N[C@H](C(=O)N[C@@H](CCCCN)C(=O)N[C@@H]1CCOc2ccc(Cl)cc21)C1CCCC1 [Example 164],0.394
4,CCC(=O)N[C@@H](Cc1ccc2ccccc2c1)C(=O)N[C@H](C(=O)N[C@@H](CCCCN)C(=O)N[C@@H]1CCOc2cc(Cl)ccc21)C1CCCC1 [Example 165],0.122
5,CCC(=O)N[C@@H](Cc1ccc2ccccc2c1)C(=O)N[C@H](C(=O)N[C@@H](CCCCN)C(=O)N[C@@H]1CCOc2c(Cl)cccc21)C1CCCC1 [Example 166],0.193
6,CCC(=O)N[C@@H](Cc1nc2ccc(Cl)cc2s1)C(=O)N[C@H](C(=O)N[C@@H](CCCCN)C(=O)N[C@@H]1CCOc2cc(Cl)ccc21)C1CCCC1 [Example 171],0.168
7,CCC(=O)N[C@@H](Cc1nc2ccc(Cl)cc2s1)C(=O)N[C@H](C(=O)N[C@@H](CCCCN)C(=O)N[C@@H]1CCOc2cccc(Cl)c21)C1CCCC1 [Example 172],0.121
8,CCC(=O)N[C@@H](Cc1nc2ccc(C)cc2s1)C(=O)N[C@H](C(=O)N[C@@H](CCCCN)C(=O)NC(c1ccccc1)c1ccccc1)C1CCCC1 [Example 173],0.0581
9,CCC(=O)N[C@@H](Cc1nc2ccc(CC)cc2s1)C(=O)N[C@H](C(=O)N[C@@H](CCCCN)C(=O)NC(c1ccccc1)c1ccccc1)C1CCCC1 [Example 174],0.0775
10,CCC(=O)N[C@@H](Cc1nc2ccc(C)cc2s1)C(=O)N[C@@H](Cc1ccccn1)C(=O)N[C@@H](CCCCN)C(=O)N[C@@H]1CCOc2ccccc21 [Example 179],0.133
11,CCC(=O)N[C@@H](Cc1nc2ccc(C)cc2s1)C(=O)N[C@H](C(=O)N[C@@H](CCCCN)C(=O)N[C@@H]1CCOc2ccccc21)C(C)(C)O [Example 182],0.375
12,CCC(=O)N[C@@H](Cc1nc2ccc(C)cc2s1)C(=O)N[C@@H](Cc1cccnc1)C(=O)N[C@@H](CCCCN)C(=O)N[C@@H]1CCOc2ccccc21 [Example 183],0.165
13,CCC(=O)N[C@@H](Cc1nc2ccc(C)cc2s1)C(=O)N[C@@H](Cc1ccncc1)C(=O)N[C@@H](CCCCN)C(=O)N[C@@H]1CCOc2ccccc21 [Example 184],0.149
14,CCC(=O)N[C@@H](Cc1nc2ccc(C)cc2s1)C(=O)N[C@@H](C[C@H]1CC[C@H](CN)CC1)C(=O)N[C@@H](CCCCN)C(=O)N[C@@H]1CCOc2ccccc21 [Example 185],0.111
15,CCC(=O)N[C@@H](Cc1nc2ccc(C)cc2s1)C(=O)N[C@H](C(=O)N[C@@H](C[C@H]1CC[C@H](CN)CC1)C(=O)N[C@@H]1CCOc2ccccc21)C1CCOCC1 [Example 189],0.23
16,CCC(=O)N[C@@H](Cc1nc2ccc(C)cc2s1)C(=O)N[C@H](C(=O)N[C@H](C(=O)N[C@@H]1CCOc2ccccc21)C1CCNCC1)C1CCOCC1 [Example 190],0.412
17,CCC(=O)N[C@@H](Cc1nc2ccc(C)cc2s1)C(=O)N[C@H](C(=O)N[C@@H](CC1CCNCC1)C(=O)N[C@@H]1CCOc2ccccc21)C1CCOCC1 [Example 191],0.187
18,CCC(=O)N[C@@H](Cc1nc2ccc(C(F)(F)F)cc2o1)C(=O)N[C@H](C(=O)N[C@@H](CCCCN)C(=O)N[C@@H]1CCOc2ccccc21)C1CCOCC1 [Example 197],0.102

# — patent US12012467B2, “Small molecule DCN1 inhibitors and therapeutic methods using the same” (THE REGENTS OF THE UNIVERSITY OF MICHIGAN, priority 2017, dated 2024)
